Assay results: article PMC3382171 (PLoS ONE, 2012)

How the values were obtained:
Assay in all cases: biochemical
Set-up in all cases: Invitrogen SelectScreen kinase panel, percent inhibition at 1 uM, ATP at Km
Conditions in all cases: read-out: Invitrogen KSS %Inh at 1 µM
PTK2B (FAK2) = PTK2B (FAK2) (Homo sapiens, UniProt Q14289)
How it was run: (§1)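 Commercial kinase panel screens run with ATP at the Km for each kinase. Compounds tested at 1 µM final concentration; values are % inhibition of phosphorylation relative to control.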

PRKACA (PKA) = PRKACA (PKA) (Homo sapiens, UniProt P17612)
How it was run: as §1

PDGFRA (PDGFR alpha) = PDGFRA (PDGFR alpha) (Homo sapiens, UniProt P16234)
How it was run: as §1

IKBKB (IKK beta) = IKBKB (IKK beta) (Homo sapiens, UniProt O14920)
How it was run: as §1

EPHB4 = EPHB4 (Homo sapiens, UniProt P54760)
How it was run: as §1

KDR (VEGFR2) = KDR (VEGFR2) (Homo sapiens, UniProt P35968)
How it was run: as §1

PIM2 = PIM2 (Homo sapiens, UniProt Q9P1W9)
How it was run: as §1

MAP2K1 (MEK1) = MAP2K1 (MEK1) (Homo sapiens, UniProt Q02750)
How it was run: as §1

NEK7 = NEK7 (Homo sapiens, UniProt Q8TDX7)
How it was run: as §1

FLT3 = FLT3 (Homo sapiens, UniProt P36888)
How it was run: as §1

AXL = AXL (Homo sapiens, UniProt P30530)
How it was run: as §1

RPS6KA5 (MSK1) = RPS6KA5 (MSK1) (Homo sapiens, UniProt O75582)
How it was run: as §1

INSR = INSR (Homo sapiens, UniProt P06213)
How it was run: as §1

BLK = BLK (Homo sapiens, UniProt P51451)
How it was run: as §1

MET M1250T = MET M1250T (Homo sapiens, UniProt P08581, M1250T)
How it was run: as §1

EGFR (ErbB1) L858R = EGFR (ErbB1) L858R (Homo sapiens, UniProt P00533, L858R)
How it was run: as §1

MAPKAPK2 = MAPKAPK2 (Homo sapiens, UniProt P49137)
How it was run: as §1

MET (cMet) = MET (cMet) (Homo sapiens, UniProt P08581)
How it was run: as §1

CSNK1G1 (CK1 gamma 1) = CSNK1G1 (CK1 gamma 1) (Homo sapiens, UniProt Q9HCP0)
How it was run: as §1

PKN1 (PRK1) = PKN1 (PRK1) (Homo sapiens, UniProt Q16512)
How it was run: as §1

STK3 (MST2) = STK3 (MST2) (Homo sapiens, UniProt Q13188)
How it was run: as §1

INSRR (IRR) = INSRR (IRR) (Homo sapiens, UniProt P14616)
How it was run: as §1

BLK, sequence (P51451 whole entry): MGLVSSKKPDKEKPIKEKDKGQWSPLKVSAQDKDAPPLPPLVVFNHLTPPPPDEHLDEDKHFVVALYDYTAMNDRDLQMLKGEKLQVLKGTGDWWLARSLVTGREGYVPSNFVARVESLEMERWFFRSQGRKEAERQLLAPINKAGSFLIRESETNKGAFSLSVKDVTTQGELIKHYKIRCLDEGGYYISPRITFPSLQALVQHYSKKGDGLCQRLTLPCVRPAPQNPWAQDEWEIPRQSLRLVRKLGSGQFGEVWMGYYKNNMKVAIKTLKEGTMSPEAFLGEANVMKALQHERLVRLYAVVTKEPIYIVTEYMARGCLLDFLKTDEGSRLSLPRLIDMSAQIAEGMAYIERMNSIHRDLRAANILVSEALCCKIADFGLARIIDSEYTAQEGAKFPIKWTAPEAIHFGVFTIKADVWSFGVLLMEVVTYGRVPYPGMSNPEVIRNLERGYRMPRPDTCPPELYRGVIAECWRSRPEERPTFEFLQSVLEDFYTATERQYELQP
PTK2B (FAK2), sequence (Q14289 whole entry): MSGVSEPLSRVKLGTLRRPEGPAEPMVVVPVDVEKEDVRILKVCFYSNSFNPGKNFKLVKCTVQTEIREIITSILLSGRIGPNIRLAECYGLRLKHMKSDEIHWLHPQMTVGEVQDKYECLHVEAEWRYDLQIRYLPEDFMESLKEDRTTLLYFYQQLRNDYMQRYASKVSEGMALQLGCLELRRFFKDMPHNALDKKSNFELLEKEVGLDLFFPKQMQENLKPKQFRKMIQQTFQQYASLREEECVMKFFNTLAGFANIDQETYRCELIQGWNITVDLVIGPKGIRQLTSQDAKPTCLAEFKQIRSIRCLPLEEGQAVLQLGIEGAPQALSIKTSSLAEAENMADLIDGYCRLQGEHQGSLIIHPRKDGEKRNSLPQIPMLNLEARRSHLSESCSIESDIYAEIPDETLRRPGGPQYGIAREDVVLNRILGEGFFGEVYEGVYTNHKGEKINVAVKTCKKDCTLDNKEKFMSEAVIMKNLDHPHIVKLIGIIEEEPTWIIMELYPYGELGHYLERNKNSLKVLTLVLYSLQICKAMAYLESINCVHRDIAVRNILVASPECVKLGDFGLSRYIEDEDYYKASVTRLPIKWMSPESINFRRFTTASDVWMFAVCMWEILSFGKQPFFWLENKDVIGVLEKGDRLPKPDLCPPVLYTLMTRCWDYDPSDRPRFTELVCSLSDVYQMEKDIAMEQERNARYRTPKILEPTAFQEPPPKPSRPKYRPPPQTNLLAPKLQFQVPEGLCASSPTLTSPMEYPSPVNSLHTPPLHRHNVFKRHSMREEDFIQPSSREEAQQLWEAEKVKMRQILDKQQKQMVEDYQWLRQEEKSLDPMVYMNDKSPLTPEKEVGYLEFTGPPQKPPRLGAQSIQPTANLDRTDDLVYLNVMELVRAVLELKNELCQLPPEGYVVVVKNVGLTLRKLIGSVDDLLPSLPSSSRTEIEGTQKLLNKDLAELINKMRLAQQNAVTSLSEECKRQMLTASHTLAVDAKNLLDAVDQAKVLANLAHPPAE
INSR, sequence (P06213 whole entry): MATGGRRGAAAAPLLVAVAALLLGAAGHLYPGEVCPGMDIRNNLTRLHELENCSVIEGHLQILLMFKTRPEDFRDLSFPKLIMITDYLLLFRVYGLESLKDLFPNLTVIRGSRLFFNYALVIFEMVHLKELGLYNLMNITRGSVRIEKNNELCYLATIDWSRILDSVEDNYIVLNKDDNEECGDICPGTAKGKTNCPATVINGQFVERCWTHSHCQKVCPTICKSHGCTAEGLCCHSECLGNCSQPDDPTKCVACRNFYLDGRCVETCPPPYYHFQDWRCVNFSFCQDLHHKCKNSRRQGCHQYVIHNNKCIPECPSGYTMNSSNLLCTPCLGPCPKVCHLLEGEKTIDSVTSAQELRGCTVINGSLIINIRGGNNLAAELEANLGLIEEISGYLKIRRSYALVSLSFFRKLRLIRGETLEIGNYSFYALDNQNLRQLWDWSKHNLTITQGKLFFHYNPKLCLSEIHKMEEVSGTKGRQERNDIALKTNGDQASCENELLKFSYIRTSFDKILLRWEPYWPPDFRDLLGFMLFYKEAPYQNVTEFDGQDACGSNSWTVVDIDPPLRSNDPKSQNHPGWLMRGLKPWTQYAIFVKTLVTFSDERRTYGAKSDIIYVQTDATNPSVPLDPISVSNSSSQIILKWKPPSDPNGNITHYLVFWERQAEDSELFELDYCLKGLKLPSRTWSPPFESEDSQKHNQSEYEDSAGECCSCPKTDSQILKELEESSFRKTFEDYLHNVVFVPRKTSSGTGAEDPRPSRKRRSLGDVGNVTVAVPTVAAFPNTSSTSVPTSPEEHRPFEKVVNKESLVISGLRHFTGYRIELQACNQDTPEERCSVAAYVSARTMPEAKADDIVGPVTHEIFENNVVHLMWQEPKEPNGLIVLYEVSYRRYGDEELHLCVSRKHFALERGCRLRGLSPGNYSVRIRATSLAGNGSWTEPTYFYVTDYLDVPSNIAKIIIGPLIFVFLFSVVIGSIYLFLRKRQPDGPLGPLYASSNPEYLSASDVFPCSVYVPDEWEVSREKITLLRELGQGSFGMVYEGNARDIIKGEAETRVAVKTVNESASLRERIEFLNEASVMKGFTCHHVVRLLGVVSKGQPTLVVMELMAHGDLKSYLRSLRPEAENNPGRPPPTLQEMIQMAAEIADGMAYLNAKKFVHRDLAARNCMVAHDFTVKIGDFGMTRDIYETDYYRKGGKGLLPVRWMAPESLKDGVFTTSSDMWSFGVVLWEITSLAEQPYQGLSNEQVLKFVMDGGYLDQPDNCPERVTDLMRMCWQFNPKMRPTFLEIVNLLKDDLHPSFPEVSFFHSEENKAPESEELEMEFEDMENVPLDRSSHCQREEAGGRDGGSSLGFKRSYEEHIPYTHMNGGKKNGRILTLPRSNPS
PIM2, sequence (Q9P1W9 whole entry): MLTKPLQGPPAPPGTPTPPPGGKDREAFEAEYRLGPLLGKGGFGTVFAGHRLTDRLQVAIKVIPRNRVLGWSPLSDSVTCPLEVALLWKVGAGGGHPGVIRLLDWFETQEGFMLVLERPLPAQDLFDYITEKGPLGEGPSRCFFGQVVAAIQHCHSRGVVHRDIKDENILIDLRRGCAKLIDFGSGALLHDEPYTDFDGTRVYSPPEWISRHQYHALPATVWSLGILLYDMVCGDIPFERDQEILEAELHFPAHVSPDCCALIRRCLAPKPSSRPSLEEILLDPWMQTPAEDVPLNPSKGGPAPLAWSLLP
PKN1 (PRK1), sequence (Q16512 whole entry): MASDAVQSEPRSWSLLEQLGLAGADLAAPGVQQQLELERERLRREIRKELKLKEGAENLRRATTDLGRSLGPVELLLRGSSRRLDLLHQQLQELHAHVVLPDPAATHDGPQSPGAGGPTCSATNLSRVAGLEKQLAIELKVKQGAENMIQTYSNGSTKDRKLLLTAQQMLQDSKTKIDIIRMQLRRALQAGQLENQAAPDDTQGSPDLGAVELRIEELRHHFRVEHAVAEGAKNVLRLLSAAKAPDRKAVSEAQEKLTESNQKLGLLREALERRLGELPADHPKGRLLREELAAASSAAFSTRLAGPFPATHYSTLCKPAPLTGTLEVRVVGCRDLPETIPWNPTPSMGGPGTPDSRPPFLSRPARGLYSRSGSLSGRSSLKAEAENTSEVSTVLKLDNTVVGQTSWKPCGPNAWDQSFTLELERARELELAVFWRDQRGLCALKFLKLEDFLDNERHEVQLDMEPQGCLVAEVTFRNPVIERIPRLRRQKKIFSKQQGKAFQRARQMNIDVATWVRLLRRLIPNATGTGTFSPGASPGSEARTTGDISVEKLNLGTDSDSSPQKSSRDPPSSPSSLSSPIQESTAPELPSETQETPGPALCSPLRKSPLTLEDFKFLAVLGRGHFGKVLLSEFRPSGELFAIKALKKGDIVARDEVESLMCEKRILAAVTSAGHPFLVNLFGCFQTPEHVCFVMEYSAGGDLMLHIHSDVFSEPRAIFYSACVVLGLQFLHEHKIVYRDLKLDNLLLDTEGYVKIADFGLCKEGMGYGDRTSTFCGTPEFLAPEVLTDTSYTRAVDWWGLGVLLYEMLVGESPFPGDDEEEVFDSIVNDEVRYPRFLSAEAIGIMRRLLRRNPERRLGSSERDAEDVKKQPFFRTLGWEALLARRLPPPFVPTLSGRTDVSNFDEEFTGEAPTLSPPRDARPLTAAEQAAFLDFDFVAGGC
MAP2K1 (MEK1), sequence (Q02750 whole entry): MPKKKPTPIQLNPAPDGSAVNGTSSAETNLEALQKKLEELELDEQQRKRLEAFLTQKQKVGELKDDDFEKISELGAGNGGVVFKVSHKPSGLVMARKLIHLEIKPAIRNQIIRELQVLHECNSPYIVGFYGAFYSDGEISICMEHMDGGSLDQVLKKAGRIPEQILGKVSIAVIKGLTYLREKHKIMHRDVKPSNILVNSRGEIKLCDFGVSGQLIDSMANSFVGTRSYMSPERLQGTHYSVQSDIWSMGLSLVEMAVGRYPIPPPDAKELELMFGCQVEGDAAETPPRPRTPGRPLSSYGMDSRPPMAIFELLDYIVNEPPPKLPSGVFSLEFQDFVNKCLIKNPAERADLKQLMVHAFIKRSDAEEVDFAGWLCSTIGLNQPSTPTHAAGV
MAPKAPK2, sequence (P49137 whole entry): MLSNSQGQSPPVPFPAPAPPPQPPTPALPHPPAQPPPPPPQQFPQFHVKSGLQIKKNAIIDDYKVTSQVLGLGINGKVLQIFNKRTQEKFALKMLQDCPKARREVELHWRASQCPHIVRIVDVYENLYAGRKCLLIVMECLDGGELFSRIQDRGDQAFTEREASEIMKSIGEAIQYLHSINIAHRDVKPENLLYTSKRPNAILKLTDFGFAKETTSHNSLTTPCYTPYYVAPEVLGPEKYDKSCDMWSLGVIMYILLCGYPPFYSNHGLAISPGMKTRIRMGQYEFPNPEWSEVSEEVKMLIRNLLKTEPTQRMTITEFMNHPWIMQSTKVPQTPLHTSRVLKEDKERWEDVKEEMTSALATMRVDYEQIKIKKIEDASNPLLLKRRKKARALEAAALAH

- inhibition at 1 µM (PTK2B (FAK2)): 6%
- inhibition at 1 µM (PRKACA (PKA)): -1%
- inhibition at 1 µM (PDGFRA (PDGFR alpha)): 10%
- inhibition at 1 µM (IKBKB (IKK beta)): 0%
- inhibition at 1 µM (EPHB4): 2%
- inhibition at 1 µM (KDR (VEGFR2)): 33%
- inhibition at 1 µM (PIM2): 3%
- inhibition at 1 µM (MAP2K1 (MEK1)): 24%
- inhibition at 1 µM (NEK7): 23%
- inhibition at 1 µM (FLT3): 61%
- inhibition at 1 µM (AXL): -1%
- inhibition at 1 µM (RPS6KA5 (MSK1)): 3%
- inhibition at 1 µM (INSR): -4%
- inhibition at 1 µM (BLK): 7%
- inhibition at 1 µM (MET M1250T): 7%
- inhibition at 1 µM (EGFR (ErbB1) L858R): 6%
- inhibition at 1 µM (MAPKAPK2): 3%
- inhibition at 1 µM (MET (cMet)): 12%
- inhibition at 1 µM (CSNK1G1 (CK1 gamma 1)): 0%
- inhibition at 1 µM (PKN1 (PRK1)): -10%
- inhibition at 1 µM (STK3 (MST2)): 9%
- inhibition at 1 µM (INSRR (IRR)): 3%
Compound: N#CCCNc1nccc(-c2cn(CC(F)F)nc2-c2cnc3[nH]ccc3c2)n1 [RAFi, PF-04880594]
